Measured values taken from ChEMBL document CHEMBL4715697, “Synthesis and biological activity of benzamide DNA minor groove binders” (2016).

Experiments:
Assay type in all cases: functional
[1] = test system: NCI-H226; test: Growth inhibition of human NCI-H226 cells assessed as cell growth at 100 uM incubated for 48 hrs by sulforhodamine B assay relative to control; details: read-out: Activity
[2] = test system: MOLT-4; test: Growth inhibition of human MOLT-4 cells assessed as cell growth at 0.1 uM incubated for 48 hrs by sulforhodamine B assay relative to control; details: read-out: Activity
[3] = test system: OVCAR-5; test: Growth inhibition of human OVCAR-5 cells assessed as cell growth at 0.01 uM incubated for 48 hrs by sulforhodamine B assay relative to control; details: read-out: Activity
[4] = test system: BT-549; test: Growth inhibition of human BT-549 cells assessed as cell growth at 0.01 uM incubated for 48 hrs by sulforhodamine B assay relative to control; details: read-out: Activity
[5] = test system: SK-MEL-28; test: Growth inhibition of human SK-MEL-28 cells assessed as cell growth at 100 uM incubated for 48 hrs by sulforhodamine B assay relative to control; details: read-out: Activity
[6] = test system: COLO 205; test: Growth inhibition of human COLO 205 cells assessed as cell growth at 0.01 uM incubated for 48 hrs by sulforhodamine B assay relative to control; details: read-out: Activity
[7] = test system: HOP-62; test: Growth inhibition of human HOP-62 cells incubated for 48 hrs by sulforhodamine B assay
[8] = test system: 786-0; test: Growth inhibition of human 786-0 cells incubated for 48 hrs by sulforhodamine B assay
[9] = test system: OVCAR-5; test: Growth inhibition of human OVCAR-5 cells incubated for 48 hrs by sulforhodamine B assay
[10] = test system: SW-620; test: Growth inhibition of human SW-620 cells assessed as cell growth at 100 uM incubated for 48 hrs by sulforhodamine B assay relative to control; details: read-out: Activity
[11] = test system: UO-31; test: Growth inhibition of human UO-31 cells assessed as cell growth at 1 uM incubated for 48 hrs by sulforhodamine B assay relative to control; details: read-out: Activity
[12] = test system: HT-29; test: Growth inhibition of human HT-29 cells incubated for 48 hrs by sulforhodamine B assay
[13] = test system: NCI-H23; test: Growth inhibition of human NCI-H23 cells incubated for 48 hrs by sulforhodamine B assay
[14] = test system: RPMI-8226; test: Growth inhibition of human RPMI-8226 cells incubated for 48 hrs by sulforhodamine B assay
[15] = test system: SNB-19; test: Growth inhibition of human SNB-19 cells assessed as cell growth at 0.1 uM incubated for 48 hrs by sulforhodamine B assay relative to control; details: read-out: Activity
[16] = test system: CAKI-1; test: Growth inhibition of human CAKI-1 cells incubated for 48 hrs by sulforhodamine B assay
[17] = test system: U-251; test: Growth inhibition of human U-251 cells assessed as cell growth at 1 uM incubated for 48 hrs by sulforhodamine B assay relative to control; details: read-out: Activity
[18] = test system: SK-OV-3; test: Growth inhibition of human SK-OV-3 cells assessed as cell growth at 1 uM incubated for 48 hrs by sulforhodamine B assay relative to control; details: read-out: Activity
[19] = test system: SR; test: Growth inhibition of human SR cells incubated for 48 hrs by sulforhodamine B assay
[20] = test system: Hs-578T; test: Growth inhibition of human Hs-578T cells assessed as cell growth at 1 uM incubated for 48 hrs by sulforhodamine B assay relative to control; details: read-out: Activity
[21] = test system: Malme-3M; test: Growth inhibition of human Malme-3M cells assessed as cell growth at 0.01 uM incubated for 48 hrs by sulforhodamine B assay relative to control; details: read-out: Activity
[22] = test system: M14; test: Growth inhibition of human M14 cells assessed as cell growth at 1 uM incubated for 48 hrs by sulforhodamine B assay relative to control; details: read-out: Activity
[23] = test system: 786-0; test: Growth inhibition of human 786-0 cells assessed as cell growth at 100 uM incubated for 48 hrs by sulforhodamine B assay relative to control; details: read-out: Activity
[24] = test system: COLO 205; test: Growth inhibition of human COLO 205 cells assessed as cell growth at 0.1 uM incubated for 48 hrs by sulforhodamine B assay relative to control; details: read-out: Activity
[25] = test system: CAKI-1; test: Growth inhibition of human CAKI-1 cells assessed as cell growth at 0.01 uM incubated for 48 hrs by sulforhodamine B assay relative to control; details: read-out: Activity
[26] = test system: T47D; test: Growth inhibition of human T47D cells incubated for 48 hrs by sulforhodamine B assay
[27] = test system: MDA-MB-435; test: Growth inhibition of human MDA-MB-435 cells assessed as cell growth at 0.1 uM incubated for 48 hrs by sulforhodamine B assay relative to control; details: read-out: Activity
[28] = test system: SF-268; test: Growth inhibition of human SF-268 cells incubated for 48 hrs by sulforhodamine B assay
[29] = test system: OVCAR-8; test: Growth inhibition of human OVCAR-8 cells assessed as cell growth at 100 uM incubated for 48 hrs by sulforhodamine B assay relative to control; details: read-out: Activity
[30] = test system: K562; test: Growth inhibition of human K562 cells assessed as cell growth at 100 uM incubated for 48 hrs by sulforhodamine B assay relative to control; details: read-out: Activity
[31] = test system: OVCAR-4; test: Growth inhibition of human OVCAR-4 cells assessed as cell growth at 0.1 uM incubated for 48 hrs by sulforhodamine B assay relative to control; details: read-out: Activity
[32] = test system: IGROV-1; test: Growth inhibition of human IGROV-1 cells assessed as cell growth at 0.01 uM incubated for 48 hrs by sulforhodamine B assay relative to control; details: read-out: Activity
[33] = read-out: LC50 (the source's name)
[34] = read-out: pLC50 (the source's name) (converted)

CC(=O)Nc1cc(CO[Si](C)(C)C(C)(C)C)cc(NC(=O)c2ccc(C(=O)Nc3cccc(NC(=O)CCCN(C)C)c3)cc2)c1
growth at 100 µM [1]: 87%
growth at 0.1 µM [2]: 91%
growth at 0.01 µM [3]: 93%
growth at 0.01 µM [4]: 95%
growth at 100 µM [5]: 74%
growth at 0.01 µM [6]: 101%
GI50 ([7]; read-out: GI50): > 75 µM
CC50 [7, 33]: > 75 µM
TGI ([7]; read-out: TGI): > 75 µM
GI50 ([7]; read-out: pGI50 (converted)): > 75.9 µM
CC50 [7, 34]: > 75.9 µM
TGI ([7]; read-out: pTGI): > 75.9 µM
GI50 ([8]; read-out: GI50): > 75 µM
LC50 ([8]; read-out: LC50): > 75 µM
TGI ([8]; read-out: TGI): > 75 µM
GI50 ([8]; read-out: pGI50 (converted)): > 75.9 µM
LC50 ([8]; read-out: pLC50 (converted)): > 75.9 µM
TGI ([8]; read-out: pTGI): > 75.9 µM
GI50 ([9]; read-out: GI50): > 75 µM
LC50 ([9]; read-out: LC50): > 75 µM
TGI ([9]; read-out: TGI): > 75 µM
GI50 ([9]; read-out: pGI50 (converted)): > 75.9 µM
LC50 ([9]; read-out: pLC50 (converted)): > 75.9 µM
TGI ([9]; read-out: pTGI): > 75.9 µM
growth at 100 µM [10]: 100%
growth at 1 µM [11]: 105%
GI50 ([12]; read-out: GI50): > 75 µM
CC50 [12, 33]: > 75 µM
TGI ([12]; read-out: TGI): > 75 µM
GI50 ([12]; read-out: pGI50 (converted)): > 75.9 µM
CC50 [12, 34]: > 75.9 µM
TGI ([12]; read-out: pTGI): > 75.9 µM
GI50 ([13]; read-out: GI50): > 75 µM
CC50 [13, 33]: > 75 µM
TGI ([13]; read-out: TGI): > 75 µM
GI50 ([13]; read-out: pGI50 (converted)): > 75.9 µM
CC50 [13, 34]: > 75.9 µM
TGI ([13]; read-out: pTGI): > 75.9 µM
GI50 ([14]; read-out: GI50): > 75 µM
CC50 [14, 33]: > 75 µM
TGI ([14]; read-out: TGI): > 75 µM
GI50 ([14]; read-out: pGI50 (converted)): > 75.9 µM
CC50 [14, 34]: > 75.9 µM
TGI ([14]; read-out: pTGI): > 75.9 µM
growth at 0.1 µM [15]: 96%
GI50 ([16]; read-out: GI50): > 75 µM
CC50 [16, 33]: > 75 µM
TGI ([16]; read-out: TGI): > 75 µM
GI50 ([16]; read-out: pGI50 (converted)): > 75.9 µM
CC50 [16, 34]: > 75.9 µM
TGI ([16]; read-out: pTGI): > 75.9 µM
growth at 1 µM [17]: 91%
growth at 1 µM [18]: 107%
GI50 ([19]; read-out: GI50): > 75 µM
CC50 [19, 33]: > 75 µM
TGI ([19]; read-out: TGI): > 75 µM
GI50 ([19]; read-out: pGI50 (converted)): > 75.9 µM
CC50 [19, 34]: > 75.9 µM
TGI ([19]; read-out: pTGI): > 75.9 µM
growth at 1 µM [20]: 117%
growth at 0.01 µM [21]: 99%
growth at 1 µM [22]: 101%
growth at 100 µM [23]: 88%
growth at 0.1 µM [24]: 100%
growth at 0.01 µM [25]: 92%
GI50 ([26]; read-out: GI50): > 75 µM
CC50 [26, 33]: > 75 µM
TGI ([26]; read-out: TGI): > 75 µM
GI50 ([26]; read-out: pGI50 (converted)): > 75.9 µM
CC50 [26, 34]: > 75.9 µM
TGI ([26]; read-out: pTGI): > 75.9 µM
growth at 0.1 µM [27]: 98%
GI50 ([28]; read-out: GI50): > 75 µM
LC50 ([28]; read-out: LC50): > 75 µM
TGI ([28]; read-out: TGI): > 75 µM
GI50 ([28]; read-out: pGI50 (converted)): > 75.9 µM
LC50 ([28]; read-out: pLC50 (converted)): > 75.9 µM
TGI ([28]; read-out: pTGI): > 75.9 µM
growth at 100 µM [29]: 88%
growth at 100 µM [30]: 94%
growth at 0.1 µM [31]: 96%
growth at 0.01 µM [32]: 99%
